In patent US9476099B2 (TRUSTEES OF DARTMOUTH COLLEGE, priority 2012, dated 2016):

System: gene promoters in NT2/D1-R1 control and DNMT3B knockdown cells
Assay: Genome-wide promoter methylation analysis, HumanMethylation27 BeadChip (Table 15)
Type: cell-based, human
Conditions: sh-3b + 5aza
Experimental: DNA methylation analysis was performed in samples in triplicate using the […] […] assay with the HumanMethylation27 BeadChip ([…]) and the BeadChip was scanned on the BeadArray Reader ([…]), according to the manufacturer's instructions. Raw data was normalized and analyzed with Genome Studio software ([…]). The HumanMethylation27 BeadChip assays 27,578 CpGs covering more than 14,000 genes, mostly from promoter regions. […] Hierarchical clustering was performed as stated above. HumanMethylation27 BeadChip data and gene expression microarray data were submitted to NCBI GEO.

Nc1ncn([C@H]2C[C@H](O)[C@@H](CO)O2)c(=O)n1 [5aza]
SERPING1 cg12783776 promoter methylation Mean: 0.350 | SFRS16 cg19317638 promoter methylation Mean: 0.369 | SFXN3 cg04880063 promoter methylation Mean: 0.188 | SH3BGRL2 cg03080985 promoter methylation Mean: 0.260 | SHH cg25167838 promoter methylation Mean: 0.127 | SKIP cg04072323 promoter methylation Mean: 0.310 | SLC30A2 cg05674944 promoter methylation Mean: 0.337 | SMCP cg09542291 promoter methylation Mean: 0.504 | SNX9 cg26845300 promoter methylation Mean: 0.722 | SOX17 cg21226224 promoter methylation Mean: 0.495 | SPRR1B cg24884084 promoter methylation Mean: 0.334 | SSH1 cg11747499 promoter methylation Mean: 0.292 | SSTR1 cg27590397 promoter methylation Mean: 0.900 | TAC1 cg07550362 promoter methylation Mean: 0.507 | TADA3L cg09279263 promoter methylation Mean: 0.350 | TERT cg02545192 promoter methylation Mean: 0.311 | TNFSF10 cg16555388 promoter methylation Mean: 0.430 | TNRC4 cg26093148 promoter methylation Mean: 0.661 | TNRC15 cg07230446 promoter methylation Mean: 0.243 | TRAF3 cg24165760 promoter methylation Mean: 0.797 | TRIM2 cg12793610 promoter methylation Mean: 0.506 | TRIM36 cg10693071 promoter methylation Mean: 0.545 | TRPM3 cg20555507 promoter methylation Mean: 0.291 | UNC5D cg00297600 promoter methylation Mean: 0.384 | WDR13 cg25053301 promoter methylation Mean: 0.211 | ZFHX1B cg15377518 promoter methylation Mean: 0.472 | ZNF222 cg09757277 promoter methylation Mean: 0.355 | cg07512517 promoter methylation Mean: 0.473 | Mean promoter methylation, ABCA3 cg02331561 (DNMT3B knockdown cells): 0.145 | Mean promoter methylation, ABLIM3 cg05026186 (DNMT3B knockdown cells): 0.240 | Mean promoter methylation, ACTL6B cg08572611 (DNMT3B knockdown cells): 0.138 | Mean promoter methylation, ANKRD46 cg23737055 (DNMT3B knockdown cells): 0.257 | Mean promoter methylation, ARNT2 cg17788682 (DNMT3B knockdown cells): 0.139 | Mean promoter methylation, B4GALNT3 cg05769161 (DNMT3B knockdown cells): 0.271 | Mean promoter methylation, BTBD1 cg16958189 (DNMT3B knockdown cells): 0.259 | Mean promoter methylation, C1RL cg22593785 (DNMT3B knockdown cells): 0.188 | Mean promoter methylation, C10orf10 cg17186163 (DNMT3B knockdown cells): 0.237 | Mean promoter methylation, C10orf72 cg02569613 (DNMT3B knockdown cells): 0.312 | Mean promoter methylation, C12orf34 cg01335367 (DNMT3B knockdown cells): 0.420 | Mean promoter methylation, C17orf40 cg18042079 (DNMT3B knockdown cells): 0.213 | Mean promoter methylation, C19orf30 cg07456645 (DNMT3B knockdown cells): 0.254 | Mean promoter methylation, C20orf29 cg09158909 (DNMT3B knockdown cells): 0.226 | Mean promoter methylation, C22orf9 cg11221513 (DNMT3B knockdown cells): 0.229 | Mean promoter methylation, CACNA1G cg18454685 (DNMT3B knockdown cells): 0.286 | Mean promoter methylation, CAMKK2 cg01369981 (DNMT3B knockdown cells): 0.191 | Mean promoter methylation, CART cg23300372 (DNMT3B knockdown cells): 0.160 | Mean promoter methylation, CCKBR cg13346411 (DNMT3B knockdown cells): 0.197 | Mean promoter methylation, CDC42EP1 cg13951472 (DNMT3B knockdown cells): 0.217 | Mean promoter methylation, CDKN2A cg10895543 (DNMT3B knockdown cells): 0.168 | Mean promoter methylation, CHST8 cg24739326 (DNMT3B knockdown cells): 0.319 | Mean promoter methylation, CPSF1 cg20326853 (DNMT3B knockdown cells): 0.241 | Mean promoter methylation, CSMD1 cg22619018 (DNMT3B knockdown cells): 0.201 | Mean promoter methylation, DCTN3 cg22579849 (DNMT3B knockdown cells): 0.325 | Mean promoter methylation, DDX42 cg05797656 (DNMT3B knockdown cells): 0.192 | Mean promoter methylation, DGKD cg25506396 (DNMT3B knockdown cells): 0.202 | Mean promoter methylation, DGKI cg06277657 (DNMT3B knockdown cells): 0.190 | Mean promoter methylation, DKK2 cg01404615 (DNMT3B knockdown cells): 0.398 | Mean promoter methylation, DUSP8 cg02271621 (DNMT3B knockdown cells): 0.135 | Mean promoter methylation, EHD2 cg12603043 (DNMT3B knockdown cells): 0.176 | Mean promoter methylation, ELK1 cg21860846 (DNMT3B knockdown cells): 0.181 | Mean promoter methylation, EMP3 cg01795122 (DNMT3B knockdown cells): 0.127 | Mean promoter methylation, EYA4 cg01805282 (DNMT3B knockdown cells): 0.174 | Mean promoter methylation, FAM70B cg15350194 (DNMT3B knockdown cells): 0.222 | Mean promoter methylation, FAM73B cg00729541 (DNMT3B knockdown cells): 0.213 | Mean promoter methylation, FCHSD2 cg17114257 (DNMT3B knockdown cells): 0.179 | Mean promoter methylation, FLJ20273 cg01704534 (DNMT3B knockdown cells): 0.222 | Mean promoter methylation, FLJ20273 cg15967525 (DNMT3B knockdown cells): 0.362 | Mean promoter methylation, FLJ42486 cg03734874 (DNMT3B knockdown cells): 0.287 | Mean promoter methylation, GAB3 cg12938998 (DNMT3B knockdown cells): 0.235 | Mean promoter methylation, GALR1 cg04534765 (DNMT3B knockdown cells): 0.176 | Mean promoter methylation, GCN5L2 cg08434547 (DNMT3B knockdown cells): 0.249 | Mean promoter methylation, GNAS cg00943909 (DNMT3B knockdown cells): 0.097 | Mean promoter methylation, HBQ1 cg07703401 (DNMT3B knockdown cells): 0.220 | Mean promoter methylation, HCN1 cg11285003 (DNMT3B knockdown cells): 0.202 | Mean promoter methylation, HES6 cg24127874 (DNMT3B knockdown cells): 0.377 | Mean promoter methylation, HEYL cg25462291 (DNMT3B knockdown cells): 0.218 | Mean promoter methylation, HRH3 cg08186362 (DNMT3B knockdown cells): 0.297 | Mean promoter methylation, ICAM1 cg22874046 (DNMT3B knockdown cells): 0.144 | Mean promoter methylation, ID2 cg23525180 (DNMT3B knockdown cells): 0.201 | Mean promoter methylation, IGFBP3 cg04796162 (DNMT3B knockdown cells): 0.230 | Mean promoter methylation, KATNB1 cg15153383 (DNMT3B knockdown cells): 0.265 | Mean promoter methylation, KCNAB1 cg23873703 (DNMT3B knockdown cells): 0.334 | Mean promoter methylation, KCNC2 cg18573383 (DNMT3B knockdown cells): 0.159 | Mean promoter methylation, KIAA1822 cg02867079 (DNMT3B knockdown cells): 0.345 | Mean promoter methylation, KIAA1840 cg06121469 (DNMT3B knockdown cells): 0.191 | Mean promoter methylation, KRTCAP2 cg11278262 (DNMT3B knockdown cells): 0.257 | Mean promoter methylation, LGALS1 cg00292662 (DNMT3B knockdown cells): 0.230 | Mean promoter methylation, LGR6 cg23578193 (DNMT3B knockdown cells): 0.187 | Mean promoter methylation, LOX cg06508445 (DNMT3B knockdown cells): 0.101 | Mean promoter methylation, MAP6D1 cg03705396 (DNMT3B knockdown cells): 0.201 | Mean promoter methylation, MGC9850 cg21097640 (DNMT3B knockdown cells): 0.218 | Mean promoter methylation, MRPL38 cg11653266 (DNMT3B knockdown cells): 0.155 | Mean promoter methylation, MT cg14078309 (DNMT3B knockdown cells): 0.154 | Mean promoter methylation, MYOD1 cg18555440 (DNMT3B knockdown cells): 0.321 | Mean promoter methylation, OGG1 cg25415932 (DNMT3B knockdown cells): 0.240 | Mean promoter methylation, OR10J1 cg25076881 (DNMT3B knockdown cells): 0.335 | Mean promoter methylation, OSTbeta cg16029760 (DNMT3B knockdown cells): 0.144 | Mean promoter methylation, PABPC4 cg12585282 (DNMT3B knockdown cells): 0.221 | Mean promoter methylation, PDE8B cg18089852 (DNMT3B knockdown cells): 0.130 | Mean promoter methylation, PHLDA2 cg01263716 (DNMT3B knockdown cells): 0.248 | Mean promoter methylation, PHLDA2 cg04720330 (DNMT3B knockdown cells): 0.195 | Mean promoter methylation, PIB5PA cg18053607 (DNMT3B knockdown cells): 0.247 | Mean promoter methylation, PLOD1 cg23286660 (DNMT3B knockdown cells): 0.235 | Mean promoter methylation, PPCDC cg11632617 (DNMT3B knockdown cells): 0.269 | Mean promoter methylation, PRDM12 cg09191327 (DNMT3B knockdown cells): 0.240 | Mean promoter methylation, PRMT8 cg23739862 (DNMT3B knockdown cells): 0.116 | Mean promoter methylation, PTPRO cg19402885 (DNMT3B knockdown cells): 0.303 | Mean promoter methylation, PTPRO cg27196745 (DNMT3B knockdown cells): 0.267 | Mean promoter methylation, R3HDML cg17692403 (DNMT3B knockdown cells): 0.288 | Mean promoter methylation, RAB37 cg12448933 (DNMT3B knockdown cells): 0.241 | Mean promoter methylation, RASA4 cg05749161 (DNMT3B knockdown cells): 0.102 | Mean promoter methylation, RASL11A cg06611744 (DNMT3B knockdown cells): 0.208 | Mean promoter methylation, SCAMP3 cg01745448 (DNMT3B knockdown cells): 0.209 | Mean promoter methylation, SCARA5 cg10171125 (DNMT3B knockdown cells): 0.239 | Mean promoter methylation, SEC14L2 cg14452140 (DNMT3B knockdown cells): 0.337 | Mean promoter methylation, SH3BGRL3 cg03100146 (DNMT3B knockdown cells): 0.341 | Mean promoter methylation, SHH cg00577464 (DNMT3B knockdown cells): 0.212 | Mean promoter methylation, SLC6A5 cg20632573 (DNMT3B knockdown cells): 0.192 | Mean promoter methylation, SLC25A22 cg02973416 (DNMT3B knockdown cells): 0.318 | Mean promoter methylation, SLC35C2 cg02413850 (DNMT3B knockdown cells): 0.155 | Mean promoter methylation, SLIT1 cg07143898 (DNMT3B knockdown cells): 0.176 | Mean promoter methylation, SORCS3 cg16787600 (DNMT3B knockdown cells): 0.384 | Mean promoter methylation, SOX15 cg01029592 (DNMT3B knockdown cells): 0.171 | Mean promoter methylation, SOX15 cg13098960 (DNMT3B knockdown cells): 0.261 | Mean promoter methylation, SOX17 cg02919422 (DNMT3B knockdown cells): 0.329 | Mean promoter methylation, STXBP3 cg11666924 (DNMT3B knockdown cells): 0.194 | Mean promoter methylation, SUSD2 cg23349242 (DNMT3B knockdown cells): 0.329 | Mean promoter methylation, TBXA2R cg09998229 (DNMT3B knockdown cells): 0.256 | Mean promoter methylation, THAP3 cg11688219 (DNMT3B knockdown cells): 0.344 | Mean promoter methylation, TMEM25 cg20001829 (DNMT3B knockdown cells): 0.238 | Mean promoter methylation, TMEM106C cg25884854 (DNMT3B knockdown cells): 0.229 | Mean promoter methylation, TRAPPC1 cg01667702 (DNMT3B knockdown cells): 0.231 | Mean promoter methylation, UBA52 cg24356797 (DNMT3B knockdown cells): 0.145 | Mean promoter methylation, UNQ2446 cg10574499 (DNMT3B knockdown cells): 0.218 | Mean promoter methylation, VPREB1 cg18441959 (DNMT3B knockdown cells): 0.230 | Mean promoter methylation, ZGPAT cg04078896 (DNMT3B knockdown cells): 0.191 | Mean promoter methylation, ZGPAT cg18611245 (DNMT3B knockdown cells): 0.379 | Mean promoter methylation, ZNF585B cg03751813 (DNMT3B knockdown cells): 0.182 | Mean promoter methylation, ZNF702 cg07559730 (DNMT3B knockdown cells): 0.221
